These are literature values, as cited in patent US10227361B2, “Fused imidazobenzothiazole compounds” (TORRENT PHARMACEUTICALS LIMITED, priority 2014, dated 2019).

The conditions of data set [1]: rheumatoid arthritis patients; single low dose tested; compared to placebo; cited from earlier work.
The conditions of data set [2]: dogs, 6-month safety study; cited from earlier work.

Take `O=c1ncn2nc(Sc3ccc(F)cc3F)ccc2c1-c1c(Cl)cccc1Cl` [Vx-745]: the clinical benefit result in data set [1] is listed as “significant clinical benefit compared to placebo”. Also, the “toxicity in safety study” value in data set [2] is listed as “undisclosed CNS toxicity”.
